Results on 16 compounds are retold here after patent publication US10590106B2, “Certain chemical entities, compositions, and methods” (NeuPharma, Inc., priority 2012, dated 2020).

Assay [1] concerns A549 cells. Put plainly: Inhibition of cancer cell growth, MTT or MTS assay, A549. It counts as cell-based. The settings on record: Homo sapiens, 72 h incubation. The method, then: (§1) Inhibition of cell growth by compounds was measured using MTT or MTS assay. Tumor cell lines were purchased from ATCC (American Type Culture Collection, Manassas, Va.). All cell lines were maintained in RPMI 1640 (Hyclone) supplemented with 10% fetal bovine serum (FBS, Hyclone), glutamine (2 mM, Hyclone), and antibiotics (penicillin 100 U/mL and streptomycin 50 μg/mL) at 37° C. in a humidified atmosphere of 5% CO2 in air. Taxol (as a positive control, Sigma) and compounds were dissolved in DMSO (Sigma), and the final concentration of DMSO in the medium was 1%. Tumor cells were plated in 96-well plates at densities of about 2000 (A375) or 4000 (A549 and Colo205) cells/well of a 96-well plate and allowed to adhere/grow for 24 h. They were then treated with various concentrations of drug and incubated for 72 h. For MTT method, medium was then removed by inverting and tapping the plates. 100 μL of MTT (0.5 mg/ml) was added to each well followed by an incubated at 37° C. for 4 h. MTT was then removed and 200 μL of DMSO was added to each well, and the ODs at 570 nm were measured after a 5 second shaking cycle in a 96-well spectrophotometer. For MTS method, 20 μL MTS (CellTiter 96 Aqueous One Solution, Promega) was added to each well followed by an incubated at 37° C. for 2-4 h, solutions were then directly put in a 96-well spectrophotometer, and the ODs at 490 nm were measured.
(§2) All concentrations of compounds were tested in triplicate and controls were averaged over 4 wells. IC50 was calculated by plotting the concentration of compound vs the percentage of inhibition in treated wells using GraphPad Prism 5. […] The scale utilized in Tables […] is as follows: +++ less than 1000 nM; ++ between 1000 nM and 5000 nM; and + greater than 5000 nM. The scale utilized in Table 8 is as follows: +++ less than 2000 nM; ++ between 2000 nM and 5000 nM; and + greater than 5000 nM.

Assay [2] concerns the target KDR (VEGFR2) (Homo sapiens (Human), UniProt P35968). As to the kind of experiment: Inhibitory activity against kinase KDR, Z'-LYTE method (Invitrogen). The format is biochemical. The settings on record: for inhibition at 1 µM: 1 μM compound, read-out: Inhibition (% inhibition at 1 μM) against KDR. How it is done:
Inhibitory activities of compounds against KDR (VEGFR2) were also measured by Invitrogen using Z′-LYTE® Method as described above with the following modification. The 2× KDR (VEGFR2)/Tyr 01 mixture is prepared in 50 mM HEPES pH 7.5, 0.01% BRIJ-35, 10 mM MgCl2, 1 mM EGTA. The final 10 μL Kinase Reaction consists of 0.5-11.7 ng KDR (VEGFR2) and 2 μM Tyr 01 in 50 mM HEPES pH 7.5, 0.01% BRIJ-35, 10 mM MgCl2, 1 mM EGTA. After the 1 hour Kinase Reaction incubation, 5 μL of a 1:256 dilution of Development Reagent B is added.
The scale utilized in Table 5 is as follows: +++ less than 100 nM; and ++ greater than 100 nM

In assay [3] the target is BRAF (Homo sapiens (Human), UniProt P15056). Put plainly: Inhibitory activity against kinase BRAF, Z'-LYTE method (Invitrogen). The format is biochemical. To be noted: 1 μM compound. The method, then:
(§3) Inhibitory activities Inhibitory activities of compounds against BRAF, and BRAF V600E were measured by Invitrogen using Z′-LYTE® Method as briefly described in the following. 4× Test compounds are dissolved in 1% DMSO. […] ATP solutions are diluted to a 4×ATP working concentration in Kinase Buffer (50 mM HEPES pH 7.5, 0.01% BRIJ-35, 10 mM MgCl2, 1 mM EGTA). Reaction started by 30-second shaking of mixture consisting of 2.5 μL 4× test compound, […] and 2.5 μL 4×ATP Solution on Bar-coded Corning, low volume NBS, black 384-well plate (Corning Cat. #3676). Then the mixture was incubated for 60-minute at room temperature for the kinase reaction, followed by addition of 5 μL of a 1:1024 dilution of development reagent A and 30-second plate shake. The mixture was then incubated for another 60-minute at room temperature for development reaction. Fluorescence was read by plate reader. IC50 was calculated by plotting the concentration of compound vs the percentage of inhibition in treated wells using GraphPad Prism 5.
(§4) Table 2 and 3 show % inhibition at 1 μM of several compounds of the invention against BRAF and BRAF V600E, respectively, using Z′-LYTE® method.

The target of assay [4] is BRAF V600E (Homo sapiens (Human), UniProt P15056, V600E). As to the kind of experiment: Inhibitory activity against kinase BRAF V600E, Z'-LYTE method (Invitrogen). To be noted: for inhibition at 1 µM: 1 μM compound, read-out: Inhibition (% inhibition at 1 μM) against BRAF V600E. The format is biochemical. How it is done: as §3, §4
Chain of BRAF V600E (P15056 whole entry V600E): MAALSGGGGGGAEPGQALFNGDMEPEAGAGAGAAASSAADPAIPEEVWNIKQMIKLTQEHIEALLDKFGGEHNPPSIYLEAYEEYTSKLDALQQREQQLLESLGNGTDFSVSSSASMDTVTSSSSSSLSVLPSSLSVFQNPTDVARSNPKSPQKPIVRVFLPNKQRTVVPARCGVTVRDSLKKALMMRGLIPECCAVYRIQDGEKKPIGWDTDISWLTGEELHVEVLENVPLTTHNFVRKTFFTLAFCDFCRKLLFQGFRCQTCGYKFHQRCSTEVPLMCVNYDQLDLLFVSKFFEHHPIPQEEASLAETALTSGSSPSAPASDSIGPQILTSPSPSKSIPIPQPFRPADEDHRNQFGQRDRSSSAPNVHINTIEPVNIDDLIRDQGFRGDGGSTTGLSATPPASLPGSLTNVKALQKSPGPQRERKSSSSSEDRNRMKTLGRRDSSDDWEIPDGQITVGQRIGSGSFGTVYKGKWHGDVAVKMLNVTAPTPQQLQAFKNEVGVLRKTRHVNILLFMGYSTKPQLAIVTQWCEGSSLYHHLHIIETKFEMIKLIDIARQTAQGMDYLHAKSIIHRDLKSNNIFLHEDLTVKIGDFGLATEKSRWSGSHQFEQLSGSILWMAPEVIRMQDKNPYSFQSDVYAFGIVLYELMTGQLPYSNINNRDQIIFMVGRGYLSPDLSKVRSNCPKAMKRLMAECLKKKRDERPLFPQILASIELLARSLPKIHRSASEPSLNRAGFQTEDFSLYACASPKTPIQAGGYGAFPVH
The scale utilized in Table 4 is as follows: +++ less than 100 nM; and ++ greater than 100 nM.

The subject of assay [5] is A375 cells. As to the kind of experiment: Inhibition of cancer cell growth, MTT or MTS assay, A375. To be noted: Homo sapiens, A-375; 72 h incubation. It counts as cell-based. The method, then:
as §1, §2

The structures appear in SMILES notation.

Chain of KDR (VEGFR2) (P35968 20-1356): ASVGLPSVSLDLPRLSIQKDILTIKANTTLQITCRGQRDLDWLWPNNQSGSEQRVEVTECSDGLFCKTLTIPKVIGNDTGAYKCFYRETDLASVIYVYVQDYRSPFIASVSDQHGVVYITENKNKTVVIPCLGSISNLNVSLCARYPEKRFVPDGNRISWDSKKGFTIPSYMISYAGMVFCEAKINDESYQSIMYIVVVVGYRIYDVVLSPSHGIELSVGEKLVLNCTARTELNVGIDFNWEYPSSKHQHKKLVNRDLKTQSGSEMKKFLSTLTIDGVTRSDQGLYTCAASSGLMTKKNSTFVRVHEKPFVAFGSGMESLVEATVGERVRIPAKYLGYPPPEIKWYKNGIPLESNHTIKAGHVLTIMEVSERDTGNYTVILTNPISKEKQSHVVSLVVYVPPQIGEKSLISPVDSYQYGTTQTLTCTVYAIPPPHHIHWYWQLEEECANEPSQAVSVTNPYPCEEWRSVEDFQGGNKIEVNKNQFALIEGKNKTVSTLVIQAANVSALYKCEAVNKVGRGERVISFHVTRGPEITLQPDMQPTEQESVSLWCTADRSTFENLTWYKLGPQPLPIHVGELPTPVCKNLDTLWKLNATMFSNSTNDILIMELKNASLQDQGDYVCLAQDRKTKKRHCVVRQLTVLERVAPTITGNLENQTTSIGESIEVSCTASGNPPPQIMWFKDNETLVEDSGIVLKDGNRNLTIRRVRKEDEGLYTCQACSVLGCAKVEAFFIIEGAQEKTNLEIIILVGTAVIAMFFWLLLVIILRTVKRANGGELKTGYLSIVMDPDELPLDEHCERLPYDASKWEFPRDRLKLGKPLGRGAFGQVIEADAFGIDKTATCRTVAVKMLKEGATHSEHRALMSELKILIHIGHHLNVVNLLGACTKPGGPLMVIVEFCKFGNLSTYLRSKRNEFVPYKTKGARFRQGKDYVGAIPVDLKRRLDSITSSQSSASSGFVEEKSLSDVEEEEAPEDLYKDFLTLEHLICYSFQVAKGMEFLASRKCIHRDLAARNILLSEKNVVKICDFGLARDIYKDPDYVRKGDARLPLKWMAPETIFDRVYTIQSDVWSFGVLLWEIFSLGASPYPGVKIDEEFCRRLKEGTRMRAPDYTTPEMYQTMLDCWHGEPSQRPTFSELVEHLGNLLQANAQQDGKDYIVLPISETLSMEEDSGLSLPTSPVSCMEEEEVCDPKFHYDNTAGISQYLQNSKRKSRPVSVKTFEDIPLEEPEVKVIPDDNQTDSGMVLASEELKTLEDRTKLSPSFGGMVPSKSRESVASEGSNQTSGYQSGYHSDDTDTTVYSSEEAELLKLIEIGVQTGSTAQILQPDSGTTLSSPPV
Chain of BRAF (P15056 whole entry): as the sequence (P15056 whole entry V600E) above, with E600V counted along it

Turning to `O=C(Nc1cccc(Oc2ccc3ncc(N4CCNCC4)nc3c2)c1)Nc1ccc(F)c(F)c1` [Compound C036, 1-(3,4-difluorophenyl)-3-(3-((3-(piperazin-1-yl)quinoxalin-6-yl)oxy)phenyl)urea], the IC50 in assay [1] was > 5 µM. For the same compound, the inhibition at 1 µM in assay [2], in assay [3] and in assay [4] was > 89% throughout.

With `O=C(Nc1cccc(Oc2ccc3ncc(N4CCNCC4)nc3c2)c1)Nc1ccc(Cl)c(C(F)(F)F)c1` [Compound C041, 1-(4-chloro-3-(trifluoromethyl)phenyl)-3-(3-((3-(piperazin-1-yl)quinoxalin-6-yl)oxy)phenyl)urea], in assay [1], the IC50 is < 2 µM. The inhibition at 1 µM in assay [2], in assay [3] and in assay [4] was > 89% in each case.

As for `O=C(Nc1cc(F)cc(F)c1)Nc1cccc(Oc2ccc3ncc(N4CCNCC4)nc3c2)c1` [Compound C039, 1-(3,5-difluorophenyl)-3-(3-((3-(piperazin-1-yl)quinoxalin-6-yl)oxy)phenyl)urea], the IC50 in assay [1] was > 5 µM. In addition, the inhibition at 1 µM in assay [2] is 70 to 89%; in assay [3] it was > 89%; in assay [4], > 89%.

For the compound `O=C(Nc1cccc(F)c1)Nc1cc(F)cc(Oc2ccc3ncc(N4CCOCC4)nc3c2)c1` [Compound C031, 1-(3-fluoro-5-((3-morpholinoquinoxalin-6-yl)oxy)phenyl)-3-(3-fluorophenyl)urea], the IC50 in assay [1] and in assay [5] was > 5 µM each time. Also, the inhibition at 1 µM in assay [2] was < 70%; in assay [4], > 89%.

Turning to `O=C(Nc1cc(F)cc(Oc2ccc3ncc(N4CCOCC4)nc3c2)c1)Nc1cccc(C(F)(F)F)c1` [Compound C032, 1-(3-fluoro-5-((3-morpholinoquinoxalin-6-yl)oxy)phenyl)-3-(3-(trifluoromethyl)phenyl)urea], the IC50 is 2 to 5 µM in assay [1] and 1 to 5 µM in assay [5]. For the same compound, the inhibition at 1 µM in assay [2] and in assay [4] was 70 to 89% throughout.

As to `O=C(Nc1ccc(Oc2ccc3ncc(N4CCOCC4)nc3c2)cc1)Nc1ccc(Cl)c(C(F)(F)F)c1` [Compound C084, 1-(4-chloro-3-(trifluoromethyl)phenyl)-3-(4-((3-morpholinoquinoxalin-6-yl)oxy)phenyl)urea], the IC50 was in the range of 2 to 5 µM in assay [1] and 1 to 5 µM in assay [5]. Besides, the inhibition at 1 µM in assay [2] was > 89%; in assay [4], 70 to 89%.

For `O=C(Nc1ccc(Cl)c(C(F)(F)F)c1)Nc1ccc(Oc2ccc3nccnc3c2)cc1F` [Compound C095, 1-(4-chloro-3-(trifluoromethyl)phenyl)-3-(2-fluoro-4-(quinoxalin-6-yloxy)phenyl)urea], the IC50 in assay [1] was 2 to 5 µM; in assay [5], > 5 µM. Further, the inhibition at 1 µM in assay [2] was 70 to 89%; in assay [4], < 70%.

For `O=C(Nc1ccc(Oc2ccc3nccnc3c2)cc1)Nc1ccc(Cl)c(C(F)(F)F)c1` [Compound C076, 1-(4-chloro-3-(trifluoromethyl)phenyl)-3-(4-(quinoxalin-6-yloxy)phenyl)urea], the IC50 in assay [1] is > 5 µM; in assay [5], 1 to 5 µM. For the same compound, the inhibition at 1 µM in assay [2] and in assay [4] was 70 to 89% each time.

For `O=C(Nc1cc(F)cc(Oc2ccc3ncc(N4CCOCC4)nc3c2)c1)Nc1ccc(Cl)c(C(F)(F)F)c1` [Compound C033, 1-(4-chloro-3-(trifluoromethyl)phenyl)-3-(3-fluoro-5-((3-morpholinoquinoxalin-6-yl)oxy)phenyl)urea], the IC50 in assay [1] was < 2 µM; in assay [5], < 1 µM. The inhibition at 1 µM in assay [2] and in assay [4] was 70 to 89% throughout.

`O=C(Nc1cccc(F)c1)Nc1ccc(F)c(Oc2ccc3nccnc3c2)c1` [Compound C023, 1-(4-fluoro-3-(quinoxalin-6-yloxy)phenyl)-3-(3-fluorophenyl)urea]: the results for the IC50 in assay [1] and in assay [5] were 2 to 5 µM and 1 to 5 µM, respectively. Besides, the inhibition at 1 µM was < 70% in assay [2] and > 89% in assay [4].

For `O=C(Nc1ccc(F)c(Oc2ccc3nccnc3c2)c1)c1cccc(C(F)(F)F)c1` [Compound C018, N-(4-fluoro-3-(quinoxalin-6-yloxy)phenyl)-3-(trifluoromethyl)benzamide], the IC50 is > 5 µM in assay [1] and 1 to 5 µM in assay [5]. The inhibition at 1 µM in assay [2] is 70 to 89%; in assay [4], > 89%.

As to `O=C(Nc1ccc(F)c(Oc2ccc3ncc(N4CCOCC4)nc3c2)c1)Nc1ccc(Cl)c(C(F)(F)F)c1` [Compound C009, 1-(4-chloro-3-(trifluoromethyl)phenyl)-3-(4-fluoro-3-((3-morpholinoquinoxalin-6-yl)oxy)phenyl)urea], the IC50 is < 2 µM in assay [1], < 1 µM in assay [5], > 0.1 µM in assay [2] and > 0.1 µM in assay [4]. For the same compound, the inhibition at 1 µM in assay [2] was > 89%; in assay [4], < 70%.

Turning to `O=C(Nc1ccc(F)c(C(F)(F)F)c1)Nc1ccc(Oc2ccc3nccnc3c2)cc1F` [Compound C098, 1-(4-fluoro-3-(trifluoromethyl)phenyl)-3-(2-fluoro-4-(quinoxalin-6-yloxy)phenyl)urea], the IC50 in assay [1] was > 5 µM; in assay [5], 1 to 5 µM. For the same compound, the inhibition at 1 µM was < 70% in assay [2] and 70 to 89% in assay [4].

For the compound `O=C(Nc1cc(F)cc(Oc2ccc3ncc(N4CCOCC4)nc3c2)c1)c1ccc(Cl)c(C(F)(F)F)c1` [Compound C029, 4-chloro-N-(3-fluoro-5-((3-morpholinoquinoxalin-6-yl)oxy)phenyl)-3-(trifluoromethyl)benzamide], the IC50 in assay [1] is 2 to 5 µM; in assay [5], 1 to 5 µM. Besides, the inhibition at 1 µM in assay [2] and in assay [4] was 70 to 89% throughout.

Take `O=C(Nc1ccc(Oc2ccc3ncc(N4CCOCC4)nc3c2)cc1)Nc1ccc(F)c(C(F)(F)F)c1` [Compound C086, 1-(4-fluoro-3-(trifluoromethyl)phenyl)-3-(4-((3-morpholinoquinoxalin-6-yl)oxy)phenyl)urea]: the results for the IC50 in assay [1] and in assay [5] were 2 to 5 µM and 1 to 5 µM, respectively. Besides, the results for the inhibition at 1 µM in assay [2] and in assay [4] were > 89% and 70 to 89%, respectively.

Take `O=C(Nc1ccc(F)c(Oc2ccc3ncc(N4CCOCC4)nc3c2)c1)c1cccc(F)c1` [Compound C025, 3-fluoro-N-(4-fluoro-3-((3-morpholinoquinoxalin-6-yl)oxy)phenyl)benzamide]: the IC50 in assay [1] and in assay [5] was > 5 µM throughout. Further, the inhibition at 1 µM in assay [2] and in assay [4] was 70 to 89% throughout.
